Measured values from patent US8080529B2, “Macrolides with anti-inflammatory activity” (Glaxo Group Limited, priority 2005, dated 2011).
Like-named read-outs stand apart in the source and are kept apart here.

Tests used:
Type in all cases: cell-based
[1] = tested on: A549; assay: Cytotoxicity assay (MTT), A549 cell line; details: 24 h
Procedure: (§1) To determine whether the anti-inflammatory activity of the test compounds was due to observed inhibition of cytokine production and inhibition of proliferation in vitro, and was not a consequence of cellular cytotoxicity, measurement of succinate dehydrogenase activity in living cells was performed. Cells were cultured for 24 h in RPM medium as described above at 37° C. the presence of the test compounds at concentrations of 50 μM and 12.5 μM. MTT [3-(4,5-dimethylthiazole-2-yl)-2,5-diphenyl tetrazolium bromide] (Promega, USA), a detection reagent, was then added and the cultures were incubated for 0.5-2 h. The amount of MTT-Formazan produced was determined using a spectrophotometer at 490 nm (Mosmann, J. Immunol. Methods, 1983, 65: 55-63).
(§2) The percentage of inhibition of cell growth was calculated using the following formula: % inhibition of cell growth=[…].

[2] = tested on: Hep G2; assay: Cytotoxicity assay (MTT), Hep G2 cell line; details: 24 h
Procedure: as §1, §2

[3] = tested on: IL-1α; assay: Inhibition of IL-1 production by stimulated human peripheral blood leukocytes in vitro; details: Homo sapiens, Leukocyte, read-out: Percentage of inhibition of IL-1α production
[4] = tested on: TNF-α; assay: Inhibition of TNF-α production by stimulated human peripheral blood leukocytes in vitro; details: Homo sapiens, Leukocyte, read-out: Percentage of inhibition of TNF-α production
Procedure: (§3) Test substances used in in vitro experiments were dissolved in dimethyl sulfoxide (DMSO) (Kemika, Croatia) at concentrations of 50 mM and 10 mM, and were further diluted to final concentrations of 50 μM and 10 μM in 1 mL Dulbecco's modified Eagle medium (DMEM) supplemented with 1% heat inactivated fetal bovine serum (FBS), 1% L-glutamine, 50 U/ml penicillin, 50 μg/ml streptomycin and 2.5 μg/mL Fungizone (amphotericin B). Media and all media supplements were purchased from Gibco, Australia, except the FBS was purchased from Sigma, USA.
(§4) Peripheral blood leukocytes (PBL) were obtained from venous blood of healthy volunteers by sedimentation on 2% dextran T-500 (Amersham Biosciences, USA) and subsequent centrifugations of leukocyte rich plasma.
(§5) Peripheral blood leukocytes (PBL), isolated as described above, were seeded in a 48-well plate at a concentration of 3 to 5×10^6 cell per well in culture medium consisting of RPMI 1640 medium (Institute of Immunology, Croatia) supplemented with 10% heat-inactivated fetal calf serum (FCS, Biowhittaker, USA), 100 U/ml penicillin (Gibco, Australia), 100 μg/ml streptomycin (Gibco, Australia) and 2 mM L-glutamine (Gibco, Australia), and preincubated with the test compounds for 2 h at 37° C., in an atmosphere of 5% CO2, and 90% humidity. Then, stimuli (Sigma, USA) were added to a final concentration of 2 μg/mL lipopolysaccharide (LPS), 1 μg/mL phorbol 12-myristate 13-acetate (PMA) or 120 μg/mL zymosan. Samples were incubated overnight under conditions described above. At the end of incubation, the supernatants were transferred to eppendorf tubes and centrifuged for 10 min at 1500×g. Concentrations of human TNF-α, IL-1β, IL-6 and IL-8 were determined in cell supernatants by sandwich ELISA, using capture and detection antibodies (R&D Systems, Minneapolis, Minn.) according to the manufacturer's recommendations.
(§6) Inhibition (as percentage) was calculated using the following formula: % inhibition=(1−concentration of cytokines in sample/concentration of cytokines in positive control)×100.
(§7) The positive control refers to LPS-, PMA- or zymosan-stimulated samples that were not preincubated with test compounds.

[5] = tested on: IL-6; assay: Inhibition of IL-6 production by stimulated human peripheral blood leukocytes in vitro; details: Homo sapiens, Leukocyte, read-out: Percentage of inhibition of IL-6 production
Procedure: as §3, §4, §5, §6, §7

[6] = tested on: IL-8; assay: Inhibition of IL-8 production by stimulated human peripheral blood leukocytes in vitro; details: Homo sapiens, Leukocyte, read-out: Percentage of inhibition of IL-8 production
Procedure: as §3, §4, §5, §6, §7

| Compound | Percentage of inhibition of cell growth ([1]; 12.5 μM) [%] | Percentage of inhibition of cell growth ([1]; 50 μM) [%] | Percentage of inhibition of cell growth ([2]; 12.5 μM) [%] | Percentage of inhibition of cell growth ([2]; 50 μM) [%] | inhibition at 10 µM ([3]; LPS-stimulated PBL) [%] | inhibition at 10 µM ([3]; PMA-stimulated PBL) [%] | inhibition at 10 µM ([3]; zymosan-stimulated PBL) [%] | inhibition at 50 µM ([3]; LPS-stimulated PBL) [%] | inhibition at 50 µM ([3]; PMA-stimulated PBL) [%] | inhibition at 50 µM ([3]; zymosan-stimulated PBL) [%] | inhibition at 10 µM ([4]; LPS-stimulated PBL) [%] | inhibition at 10 µM ([4]; PMA-stimulated PBL) [%] | inhibition at 10 µM ([4]; zymosan-stimulated PBL) [%] | inhibition at 50 µM ([4]; LPS-stimulated PBL) [%] | inhibition at 50 µM ([4]; PMA-stimulated PBL) [%] | inhibition at 50 µM ([4]; zymosan-stimulated PBL) [%] | inhibition at 10 µM ([5]; LPS-stimulated PBL) [%] | inhibition at 10 µM ([5]; PMA-stimulated PBL) [%] | inhibition at 10 µM ([5]; zymosan-stimulated PBL) [%] | inhibition at 50 µM ([5]; LPS-stimulated PBL) [%] | further results |
| --- | --- | --- | --- | --- | --- | --- | --- | --- | --- | --- | --- | --- | --- | --- | --- | --- | --- | --- | --- | --- | --- |
| CC[C@H]1OC(=O)[C@H](C)[C@@H](O[C@H]2C[C@@](C)(OC)[C@@H](OC(=O)CCN3CC(C)CC(C)C3)[C@H](C)O2)[C@H](C)[C@@H](O[C@@H]2O[C@H](C)C[C@H](N(C)C)[C@H]2O)[C@](C)(OC)C[C@@H](C)C(=O)N[C@H](C)[C@@H](O)[C@]1(C)O (stereo partly shown) [Example 37] | 1 | 0 | 3 | 19 | 60 | 14 | 49 | 69 | 25 | 98 | 15 | 28 | 17 | 76 | 45 | 96 | 20 | 41 | 21 | 78 | inhibition at 50 µM ([5]; PMA-stimulated PBL): 57%; inhibition at 50 µM ([5]; zymosan-stimulated PBL): 100%; inhibition at 10 µM ([6]; LPS-stimulated PBL): 14%; inhibition at 10 µM ([6]; PMA-stimulated PBL): 17%; inhibition at 10 µM ([6]; zymosan-stimulated PBL): 27%; inhibition at 50 µM ([6]; LPS-stimulated PBL): 0%; inhibition at 50 µM ([6]; PMA-stimulated PBL): 10%; inhibition at 50 µM ([6]; zymosan-stimulated PBL): 0% |
| CC[C@H]1OC(=O)[C@H](C)[C@@H](O[C@H]2C[C@@](C)(OC)[C@@H](OC(=O)CCN3CCN(CCCN4CCCCC4)CC3)[C@H](C)O2)[C@H](C)[C@@H](O[C@@H]2O[C@H](C)C[C@H](N(C)C)[C@H]2O)[C@](C)(OC)C[C@@H](C)C(=O)N[C@H](C)[C@@H](O)[C@]1(C)O [Example 22] | 5 | 0 | 3 | 1 | 5 | 14 | 57 | 46 | 56 | 76 | 0 | 0 | 0 | 23 | 55 | 35 | 3 | 16 | 28 | 28 | inhibition at 50 µM ([5]; PMA-stimulated PBL): 60%; inhibition at 50 µM ([5]; zymosan-stimulated PBL): 51%; inhibition at 10 µM ([6]; LPS-stimulated PBL): 0%; inhibition at 10 µM ([6]; PMA-stimulated PBL): 0%; inhibition at 10 µM ([6]; zymosan-stimulated PBL): 10%; inhibition at 50 µM ([6]; LPS-stimulated PBL): 5%; inhibition at 50 µM ([6]; PMA-stimulated PBL): 15%; inhibition at 50 µM ([6]; zymosan-stimulated PBL): 30% |
| CC[C@H]1OC(=O)[C@H](C)[C@@H](O[C@H]2C[C@@](C)(OC)[C@@H](OC(=O)CCN3CCN(CCOCCO)CC3)[C@H](C)O2)[C@H](C)[C@@H](O[C@@H]2O[C@H](C)C[C@H](N(C)C)[C@H]2O)[C@](C)(OC)C[C@@H](C)C(=O)N[C@H](C)[C@@H](O)[C@]1(C)O [Example 18] | 0 | 0 | 5 | 3 | 16 | 34 | 51 | 45 | 68 | 90 | 9 | 38 | 21 | 12 | 57 | 30 | 10 | 33 | 34 | 23 | inhibition at 50 µM ([5]; PMA-stimulated PBL): 61%; inhibition at 50 µM ([5]; zymosan-stimulated PBL): 63%; inhibition at 10 µM ([6]; LPS-stimulated PBL): 6%; inhibition at 10 µM ([6]; PMA-stimulated PBL): 7%; inhibition at 10 µM ([6]; zymosan-stimulated PBL): 25%; inhibition at 50 µM ([6]; LPS-stimulated PBL): 0%; inhibition at 50 µM ([6]; PMA-stimulated PBL): 0%; inhibition at 50 µM ([6]; zymosan-stimulated PBL): 22% |
| CC[C@H]1OC(=O)[C@H](C)[C@@H](O[C@H]2C[C@@](C)(OC)[C@@H](OC(=O)CCN3CCCCCC3)[C@H](C)O2)[C@H](C)[C@@H](O[C@@H]2O[C@H](C)C[C@H](N(C)C)[C@H]2O)[C@](C)(OC)C[C@@H](C)C(=O)N[C@H](C)[C@@H](O)[C@]1(C)O [Example 41] | 1 | 0 | 7 | 3 | 79 | 52 | 80 | 84 | 100 | 100 | 39 | 30 | 27 | 95 | 70 | 99 | 25 | 59 | 36 | 92 | inhibition at 50 µM ([5]; PMA-stimulated PBL): 79%; inhibition at 50 µM ([5]; zymosan-stimulated PBL): 100%; inhibition at 10 µM ([6]; LPS-stimulated PBL): 29%; inhibition at 10 µM ([6]; PMA-stimulated PBL): 10%; inhibition at 10 µM ([6]; zymosan-stimulated PBL): 19%; inhibition at 50 µM ([6]; LPS-stimulated PBL): 87%; inhibition at 50 µM ([6]; PMA-stimulated PBL): 42%; inhibition at 50 µM ([6]; zymosan-stimulated PBL): 63% |
